Data on four compounds can be found in patent EP0250264A1, “Irreversible dopamine-Beta-hydroxylase inhibitors” (SMITHKLINE BECKMAN CORPORATION, priority 1986, dated 1987).

The subject of test [1] is Spontaneously hypertensive rats. The test can be described thus: Mean arterial blood pressure in spontaneously hypertensive rats, monitored with indwelling tail artery cannulae. The test is classed as in vivo. The settings on record: 100 mg/kg intraperitoneally; for blood pressure reduction remaining at 260 minutes: 260 minutes after administration, b38 compares to vehicle-treated controls. The procedure:
Spontaneously hypertensive rats were dosed with a suspension or solution of ß-ethynylbenzeneethanamine- methane sulfonate at a dose of 100 mg/kg intraperitoneally, and mean arterial blood pressure was monitored for 260 minutes using indwelling cannulae positioned in the tail arteries.
Blood pressure also was monitored in spontaneously hypertensive rats given 100 mg/kg intraperitoneally B-ethynyl-3-hydroxybenzeneethanamine hydrochloride.

Test [2] addresses T1, DBH (Homo sapiens, UniProt P09172).
T1 sequence (P09172 1-617): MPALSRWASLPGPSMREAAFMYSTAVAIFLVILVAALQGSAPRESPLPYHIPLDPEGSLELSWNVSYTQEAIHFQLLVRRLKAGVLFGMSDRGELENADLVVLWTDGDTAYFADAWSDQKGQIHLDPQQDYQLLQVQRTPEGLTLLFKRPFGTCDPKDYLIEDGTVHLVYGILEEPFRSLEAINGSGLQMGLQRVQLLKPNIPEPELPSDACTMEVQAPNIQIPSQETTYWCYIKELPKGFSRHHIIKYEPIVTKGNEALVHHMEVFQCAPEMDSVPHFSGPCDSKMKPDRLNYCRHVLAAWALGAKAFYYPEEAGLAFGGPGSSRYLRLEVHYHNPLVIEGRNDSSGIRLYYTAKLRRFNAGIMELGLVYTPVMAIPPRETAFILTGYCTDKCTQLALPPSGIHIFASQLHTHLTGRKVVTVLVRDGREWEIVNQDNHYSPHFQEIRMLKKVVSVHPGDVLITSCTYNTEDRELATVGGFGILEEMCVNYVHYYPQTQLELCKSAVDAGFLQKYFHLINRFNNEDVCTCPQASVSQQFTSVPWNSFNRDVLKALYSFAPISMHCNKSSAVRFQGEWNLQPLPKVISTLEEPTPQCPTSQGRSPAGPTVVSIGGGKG
The experiment in a line: DBH inhibition assay, conversion of tyramine to octopamine (enzyme inhibition kinetic study). Type of test: biochemical. The settings on record: enzyme incubated for up to 50 minutes with 10, 20, 40, or 80 µM concentrations. On the procedure:
DBH activity was assayed by a standard procedure for measuring the conversion of tyramine to octopamine in the presence of DBH. J.J. Pisano, et al., Biochim. Biophy. Acta, 43, 566-68 (1960). Octopamine was assayed following sodium periodate oxidation to p-hydroxybenzaldehyde by measuring spectrophotometric absorbance at 330 nm.
To measure DBH inhibition, the enzyme was incubated for up to 50 minutes with 10, 20, 40, or 80 µM concentrations of ß-ethynyl-4-hydroxybenzeneethanamine.

The target of test [3] is T1, DBH. The settings on record: cited from earlier work.

Regarding `C#CC(CN)c1cccc(O)c1` (stereo not shown) [ß-Ethynyl-3-Hydrpxybenzeneethanamine], in test [1], the “blood pressure reduction remaining at 260 minutes” value is given as “approximately ten”. For the same compound, the blood pressure reductions entry in test [1] (forty minutes following compound administration) is listed as “thirty”.

For the compound `C#CC(CN)c1ccc(O)cc1.Cl` (stereo not shown) [ß-ethynyl-4-hydroxybenzeneethanamine, ß-Ethynyl-4-Hydroxybenzeneethanamine Hydrochloride], at DBH [2], the DBH inhibition result is reported as “concentration- dependent DBH inhibition” and the “enzyme inhibition, dependence on time” value is listed as “time-dependent”.

On to `C#CC(CN)c1ccccc1.CS(=O)(=O)O` (stereo not shown) [ß-ethynylbenzeneethanamine- methane sulfonate], for which, in test [1], the “blood pressure reduction remaining at 260 minutes” value is listed as “approximately twenty”. For the same compound, in test [1] (twenty to forty minutes following administration), the “reductions in blood pressure” value was “approximately twenty”.

With phenylpicolinic acid, the “inhibitory activity relative to fusaric acid” value at DBH [3] was “twice the inhibitory activity of fusaric acid”.
